From patent US20160222430A1, “D-ALA-D-ALA-BASED DIPEPTIDES AS TOOLS FOR IMAGING PEPTIDOGLYCAN BIOSYNTHESIS” (INDIANA UNIVERSITY RESEARCH AND TECHNOLOGY CORPORATION, priority 2013, published 2016)
Where two headings read alike, the source gives them in different places. Where a SMILES comes first, the peptide text is derived from it. [ ]: non-standard residue; d: D form.

Experiments:
[1] = test system: C. trachomatis serovar L2 strain 434/Bu; assay: DCS Chlamydia trachomatis plaque assay in L2 mouse fibroblast monolayers; assay type: cell-based; conditions: DCS 294 μM
[2] = test system: E. coli ΔddlA ΔddlB; assay type: cell-based, Escherichia coli; further: key: +++++: highest culture density achieved within a set; ++++: intermediate values, relative fractions of the highest culture density within a set; +++: intermediate values, relative fractions of the highest culture density within a set; ++: intermediate values, relative fractions of the highest culture density within a set; +: intermediate values, relative fractions of the highest culture density within a set; −: no bacterial growth
[3] = test system: E. coli wt; assay type: cell-based, Escherichia coli; design: Growth rescue (culture density), E. coli wt: key: +++++: highest culture density achieved within a set; ++++: intermediate values, relative fractions of the highest culture density within a set; +++: intermediate values, relative fractions of the highest culture density within a set; ++: intermediate values, relative fractions of the highest culture density within a set; +: intermediate values, relative fractions of the highest culture density within a set; −: no bacterial growth; on Growth (culture density), E. coli wt: key: +++++: highest culture density achieved within a set; ++++: intermediate values, relative fractions of the highest culture density within a set; +++: intermediate values, relative fractions of the highest culture density within a set; ++: intermediate values, relative fractions of the highest culture density within a set; +: intermediate values, relative fractions of the highest culture density within a set; −: no bacterial growth
[4] = test system: B. subtilis wt; assay type: cell-based, Bacillus subtilis; design: Growth rescue (culture density), B. subtilis wt: key: +++++: highest culture density achieved within a set; ++++: intermediate values, relative fractions of the highest culture density within a set; +++: intermediate values, relative fractions of the highest culture density within a set; ++: intermediate values, relative fractions of the highest culture density within a set; +: intermediate values, relative fractions of the highest culture density within a set; −: no bacterial growth; on Growth (culture density), B. subtilis wt: key: +++++: highest culture density achieved within a set; ++++: intermediate values, relative fractions of the highest culture density within a set; +++: intermediate values, relative fractions of the highest culture density within a set; ++: intermediate values, relative fractions of the highest culture density within a set; +: intermediate values, relative fractions of the highest culture density within a set; −: no bacterial growth
[5] = test system: C. trachomatis serovar L2 strain 434/Bu; assay: Labeling of chlamydial PG in infected L2 cells; assay type: cell-based, Chlamydia trachomatis; conditions: grown for 18 h in the presence of antibiotic (DCS 294 μM or ampicillin 2.8 μM)
[6] = test system: E. coli cells; assay: PG labeling of E. coli with dipeptide probes, click chemistry and epifluorescence microscopy; assay type: cell-based, Escherichia coli; conditions: 0.5 mM, 45 min; clicked to Alexa Fluor 488 azide
[7] = test system: B. subtilis cells; assay type: cell-based, Bacillus subtilis
[8] = test system: E. coli; assay: FDAA/CDAA labeling of E. coli, fluorescence microscopy; assay type: cell-based, Escherichia coli; conditions: 2%-8% of doubling time
[9] = test system: A. tumefaciens; assay: Control experiment with fluorescent D-Ala and L-Ala in A. tumefaciens; assay type: cell-based, Agrobacterium tumefaciens
Description: Control experiments were carried out in A. tumefaciens, B. subtilis and E. coli with fluorescent D-Ala (D-HCC) and fluorescent L-Ala (L-HCC). […] This observation was true for all strains tested.

C[C@@H](N)C(=O)O [D-Ala, D-alanine]
Plaque formation ([1]; amino acid to DCS ratio 1:1): ++++
Plaque formation ([1]; amino acid to DCS ratio 1:10): +++

C[C@@H](N)C(=O)N[C@H](C)C(=O)O [DA-DA, D-alanyl-D-alanine] (H-[dA]-[dA]-OH)
Growth rescue (culture density), E. coli Δddla, Δddlb ([2]; MM (M9 + 0.2% glucose) + 25 μM, initial inoculum OD600 = 0.025): ++
Growth rescue (culture density), E. coli Δddla, Δddlb ([2]; MM + 25 μM, initial inoculum OD600 = 0.0025): +
Growth rescue (culture density), E. coli Δddla, Δddlb ([2]; MM + 200 μM, initial inoculum OD600 = 0.025): +++++
Growth rescue (culture density), E. coli wt [3]: ++
Growth rescue (culture density), B. subtilis wt [4]: ++++
Plaque formation ([1]; amino acid to DCS ratio 1:1): ++
Plaque formation ([1]; amino acid to DCS ratio 10:1): +++

N[C@@H]1CONC1=O [DCS, D-cycloserine]
Growth (culture density), E. coli wt [3]: −
Growth (culture density), B. subtilis wt [4]: −
Plaque formation ([1]; no amino acid): −
Morphology of chlamydial RBs grown with antibiotic [5]: inclusions contained enlarged, aberrant RBs

C#CN[C@@H](C)C(=O)N[C@@H](C)C(=O)O [ELA-LA, ethynyl-L-alanyl-L-alanine]
Growth rescue (culture density), E. coli Δddla, Δddlb ([2]; MM + 0.8 mM, initial inoculum OD600 = 0.025): −
Growth rescue (culture density), E. coli Δddla, Δddlb ([2]; MM + DA-DA (25 μM) + 0.80 mM of the analog, initial inoculum OD600 = 0.0025): +
PG labeling signal, L-enantiomer control [6]: No labeling was observed
PG labeling signal, L-enantiomer control [7]: No labeling was observed

NC(CNC(=O)c1cc2ccc(O)cc2oc1=O)C(=O)O (stereo not drawn) [HADA]
Localization of signal after short labeling times [8]: preferential localization of the signal at the septal plane of pre-divisional cells and in punctate patterns on the lateral walls of elongating cells
Incorporation into the cell wall [9]: incorporated into the cell wall

N[C@@H](CNC(=O)c1cc2ccc(O)cc2oc1=O)C(=O)O [HALA]
Incorporation into the cell wall [9]: only D-HCC was incorporated into the cell wall

CC1(C)S[C@@H]2[C@H](NC(=O)[C@H](N)c3ccccc3)C(=O)N2[C@H]1C(=O)O [ampicillin]
Morphology of chlamydial RBs grown with antibiotic [5]: inclusions contained enlarged, aberrant RBs
